How the values were obtained:
Type in all cases: functional, cell-based
A549 = assay: Cytotoxicity against human A549 cells by MTT assay
BGC-823 = assay: Cytotoxicity against human BGC823 cells by MTT assay
MCF7 = assay: Cytotoxicity against human MCF7 cells by MTT assay
Bel-7402 = assay: Cytotoxicity against human Bel7402 cells by MTT assay
HCT-8 = assay: Cytotoxicity against human HCT8 cells by MTT assay

Measured: IC50

C=C1CC[C@]2(O)[C@H]([C@H](C(C)(C)O)CC[C@H]2C)[C@H]1O
> 10 µg/mL: A549 | BGC-823 | MCF7 | Bel-7402 | HCT-8

CC(C)[C@@H]1CC[C@@H](C)[C@]2(O)CC[C@@](C)(O)[C@@H](O)[C@@H]12
> 10 µg/mL: A549 | BGC-823 | MCF7 | Bel-7402 | HCT-8

CC1=CC[C@@]2(O)[C@H](C)CC[C@@H](C(C)C)[C@@H]2C1=O
> 10 µg/mL: A549 | BGC-823 | MCF7 | Bel-7402 | HCT-8

CC(C)[C@@H]1CC[C@@H](C)[C@]2(O)CCC(C=O)=C[C@@H]12
> 10 µg/mL: A549 | BGC-823 | MCF7 | Bel-7402 | HCT-8

CC1=CC[C@]2(O)[C@@H]([C@@H]1O)[C@H](C(C)C)CC[C@H]2C
> 10 µg/mL: A549 | BGC-823 | MCF7 | Bel-7402 | HCT-8

CC1=CC[C@]2(O)[C@@H]([C@H]1O)[C@H](C(C)C)CC[C@H]2C
> 10 µg/mL: A549 | BGC-823 | MCF7 | Bel-7402 | HCT-8

C=C1CC[C@]2(O)[C@@H]([C@@H]1O)[C@H](C(C)C)CC[C@H]2C
> 10 µg/mL: A549 | BGC-823 | MCF7 | Bel-7402 | HCT-8
